From US9403850B2, “Beta-lactamase inhibitors” (priority 2013, dated 2016)

Columns and labels:
[1] = system: K. pneumoniae 156319 expressing KPC-3; assay: Broth microdilution MIC assay, partner meropenem; type: cell-based; conditions: Klebsiella pneumoniae, read-out: MIC of Exemplary Compounds in presence of fixed β-lactams, Fixed Mero, K.P. 156319 KPC-3
[2] = system: E. cloacae 144200 expressing Class C P99 AmpC; assay: Broth microdilution MIC assay, partner ceftazidime;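 further: ceftazidime held fixed at 4 µg/mL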; type: cell-based; conditions: Enterobacter cloacae, read-out: MIC of Exemplary Compounds in presence of fixed β-lactams, Fixed CAZ, E. cl. 144200 p99 AmpC
[3] = system: K. pneumoniae A-1797 expressing KPC-2 and VIM-4; assay: Broth microdilution MIC assay, partner meropenem; type: cell-based; conditions: Klebsiella pneumoniae, read-out: MIC of Exemplary Compounds in presence of fixed β-lactams, Fixed Mero, K.P. A-1797 KPC-2 VIM-4
VIM-2 = molecular target: T1, VIM-2 (Escherichia coli, UniProt Q5U7L7); assay: β-Lactamase enzyme inhibition assay, VIM-2 (nitrocefin substrate); type: biochemical; conditions: nitrocefin substrate 100 μM, 15 min preincubation at 37° C.; read-out: IC50, Class B VIM-2
T1 construct: made in house; host or cells: E. coli BL21(DE3)
Summary of the method: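 Purified VIM-2 (Q sepharose anion exchange, HEPES pH 7.5) preincubated with inhibitor 15 min at 37° C. Nitrocefin added at 100 μM final; absorbance at 486 nm monitored 10 min. IC50 from inhibition of initial hydrolysis rate versus inhibitor-free controls.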

[4] = system: P. aeruginosa Ps296 expressing VIM-2; assay: Broth microdilution MIC assay, partner meropenem; type: cell-based; conditions: Pseudomonas aeruginosa, read-out: MIC of Exemplary Compounds in presence of fixed β-lactams, Fixed Mero, P. aerug. Ps296 VIM-2
[5] = system: E. coli ESBL4 expressing CTX-M-15; assay: Broth microdilution MIC assay, partner ceftazidime;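 further: ceftazidime held fixed at 4 µg/mL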; type: cell-based; conditions: Escherichia coli, read-out: MIC of Exemplary Compounds in presence of fixed β-lactams, Fixed CAZ, E. coli ESBL4 CTX-M-15
[6] = system: S. aureus MSSA-7 producing penicillinase PC-1; assay: Broth microdilution MIC assay, partner piperacillin; type: cell-based; conditions: Staphylococcus aureus, fixed piperacillin 4 μg/mL, read-out: MIC of Exemplary Compounds in presence of fixed β-lactams, Fixed Pip, S. aureus MSSA-7 PC-1

## O=C(Cc1ccc2c(c1)CNCC2)N[C@H]1Cc2cccc(C(=O)O)c2OB1O [Example 51, (R)-2-Hydroxy-3-(2-1,2,3,4-tetrahydro-isoquinolin-7-yl-acetylamino)-3,4-dihydro-2H-benzo[e][1,2]oxaborinine-8-carboxylic acid]
[1]
  MIC: < 4 µg/mL
[2]
  MIC: < 4 µg/mL
[3]
  MIC: < 4 µg/mL
VIM-2
  IC50: < 100 nM
[4]
  MIC: < 4 µg/mL
[5]
  MIC: < 4 µg/mL
[6]
  MIC: < 4 µg/mL

## O=C(N[C@H]1Cc2cccc(C(=O)O)c2OB1O)c1cnco1 [Example 52, (R)-2-Hydroxy-3-[(oxazole-5-carbonyl)-amino]-3,4-dihydro-2H-benzo[e][1,2]oxaborinine-8-carboxylic acid]
[1]
  MIC: < 4 µg/mL
[2]
  MIC: < 4 µg/mL
[3]
  MIC: > 32 µg/mL
VIM-2
  IC50: 100 to 1000 nM
[4]
  MIC: 8 to 32 µg/mL
[5]
  MIC: < 4 µg/mL
[6]
  MIC: < 4 µg/mL

## O=C(O)c1ccccc1C(=O)N[C@H]1Cc2cccc(C(=O)O)c2OB1O [Example 53, (R)-3-(2-carboxybenzamido)-2-hydroxy-3,4-dihydro-2H-benzo[e][1,2]oxaborinine-8-carboxylic acid]
[1]
  MIC: < 4 µg/mL
[2]
  MIC: < 4 µg/mL
[3]
  MIC: 8 to 32 µg/mL
VIM-2
  IC50: 1000 to 10000 nM
[4]
  MIC: > 32 µg/mL
[5]
  MIC: < 4 µg/mL
[6]
  MIC: < 4 µg/mL

## NCCNC(=O)c1ccccc1C(=O)N[C@H]1Cc2cccc(C(=O)O)c2OB1O [Example 54, (R)-3-(2-(2-aminoethylcarbamoyl)benzamido)-2-hydroxy-3,4-dihydro-2H-benzo[e][1,2]oxaborinine-8-carboxylic acid]
[1]
  MIC: 8 to 32 µg/mL
[2]
  MIC: < 4 µg/mL
[3]
  MIC: > 32 µg/mL
VIM-2
  IC50: 1000 to 10000 nM
[4]
  MIC: < 4 µg/mL
[5]
  MIC: < 4 µg/mL
[6]
  MIC: > 32 µg/mL

## CC(C)NCc1cc(C(=O)N[C@H]2Cc3cccc(C(=O)O)c3OB2O)ccc1CN [Example 55, (R)-3-(4-(aminomethyl)-3-((isopropylamino)methyl)benzamido)-2-hydroxy-3,4-dihydro-2H-benzo[e][1,2]oxaborinine-8-carboxylic acid]
[1]
  MIC: 8 to 32 µg/mL
[2]
  MIC: < 4 µg/mL
[3]
  MIC: > 32 µg/mL
VIM-2
  IC50: 100 to 1000 nM
[4]
  MIC: < 4 µg/mL
[5]
  MIC: < 4 µg/mL
[6]
  MIC: > 32 µg/mL

## CC(C)NCc1ccc(C(=O)N[C@H]2Cc3cccc(C(=O)O)c3OB2O)cc1CNC(C)C [Example 56, (R)-3-(3,4-bis((isopropylamino)methyl)benzamido)-2-hydroxy-3,4-dihydro-2H-benzo[e][1,2]oxaborinine-8-carboxylic acid]
[1]
  MIC: < 4 µg/mL
[2]
  MIC: < 4 µg/mL
[3]
  MIC: < 4 µg/mL
VIM-2
  IC50: 100 to 1000 nM
[4]
  MIC: < 4 µg/mL
[5]
  MIC: < 4 µg/mL
[6]
  MIC: < 4 µg/mL

## NCCNc1ccc(CC(=O)N[C@H]2Cc3cccc(C(=O)O)c3OB2O)cc1 [Example 57, (R)-3-(2-(4-(2-aminoethylamino)phenyl)acetamido)-2-hydroxy-3,4-dihydro-2H-benzo[e][1,2]oxaborinine-8-carboxylic acid]
[1]
  MIC: 8 to 32 µg/mL
[2]
  MIC: < 4 µg/mL
[3]
  MIC: < 4 µg/mL
VIM-2
  IC50: 1000 to 10000 nM
[4]
  MIC: < 4 µg/mL
[5]
  MIC: < 4 µg/mL
[6]
  MIC: < 4 µg/mL

## NCCOc1ccc(CC(=O)N[C@H]2Cc3cccc(C(=O)O)c3OB2O)cc1OCCN [Example 58, (R)-3-(2-(3,4-bis(2-aminoethoxy)phenyl)acetamido)-2-hydroxy-3,4-dihydro-2H-benzo[e][1,2]oxaborinine-8-carboxylic acid]
[1]
  MIC: < 4 µg/mL
[2]
  MIC: < 4 µg/mL
[3]
  MIC: 8 to 32 µg/mL
VIM-2
  IC50: 100 to 1000 nM
[4]
  MIC: < 4 µg/mL
[5]
  MIC: < 4 µg/mL
[6]
  MIC: < 4 µg/mL

## NCCOc1ccc(CC(=O)N[C@H]2Cc3cccc(C(=O)O)c3OB2O)cc1O [Example 59, (R)-3-(2-(4-(2-aminoethoxy)-3-hydroxyphenyl)acetamido)-2-hydroxy-3,4-dihydro-2H-benzo[e][1,2]oxaborinine-8-carboxylic acid]
[1]
  MIC: < 4 µg/mL
[2]
  MIC: < 4 µg/mL
[3]
  MIC: 8 to 32 µg/mL
VIM-2
  IC50: 100 to 1000 nM
[4]
  MIC: < 4 µg/mL
[5]
  MIC: < 4 µg/mL
[6]
  MIC: < 4 µg/mL

## NCCNc1ccc(CC(=O)N[C@H]2Cc3cccc(C(=O)O)c3OB2O)cn1 [Example 60, (R)-3-(2-(6-(2-aminoethylamino)pyridin-3-yl)acetamido)-2-hydroxy-3,4-dihydro-2H-benzo[e][1,2]oxaborinine-8-carboxylic acid]
[1]
  MIC: < 4 µg/mL
[2]
  MIC: < 4 µg/mL
[3]
  MIC: 8 to 32 µg/mL
VIM-2
  IC50: 100 to 1000 nM
[4]
  MIC: < 4 µg/mL
[5]
  MIC: < 4 µg/mL
[6]
  MIC: < 4 µg/mL

## NCCNc1ccc(CC(=O)N[C@H]2Cc3cccc(C(=O)O)c3OB2O)c[n+]1[O-] [Example 61, (R)-2-(2-aminoethylamino)-5-(2-(8-carboxy-2-hydroxy-3,4-dihydro-2H-benzo[e][1,2]oxaborinin-3-ylamino)-2-oxoethyl)pyridine 1-oxide]
[1]
  MIC: < 4 µg/mL
[2]
  MIC: < 4 µg/mL
[3]
  MIC: < 4 µg/mL
VIM-2
  IC50: 100 to 1000 nM
[4]
  MIC: < 4 µg/mL
[5]
  MIC: < 4 µg/mL
[6]
  MIC: < 4 µg/mL

## NCc1cc(C(=O)N[C@H]2Cc3cccc(C(=O)O)c3OB2O)cnc1CN [Example 62, (R)-3-(5,6-bis(aminomethyl)nicotinamido)-2-hydroxy-3,4-dihydro-2H-benzo[e][1,2]oxaborinine-8-carboxylic acid]
[1]
  MIC: < 4 µg/mL
[2]
  MIC: < 4 µg/mL
[3]
  MIC: < 4 µg/mL
VIM-2
  IC50: 100 to 1000 nM
[4]
  MIC: < 4 µg/mL
[5]
  MIC: < 4 µg/mL
[6]
  MIC: < 4 µg/mL

## NCc1cnc(C(=O)N[C@H]2Cc3cccc(C(=O)O)c3OB2O)cc1CN [Example 63]
[1]
  MIC: < 4 µg/mL
[2]
  MIC: < 4 µg/mL
[3]
  MIC: < 4 µg/mL
VIM-2
  IC50: < 100 nM
[4]
  MIC: < 4 µg/mL
[5]
  MIC: < 4 µg/mL
[6]
  MIC: < 4 µg/mL
